Measured values reported in patent US7910617B2 (Sankyo Company, Limited, priority 2004, dated 2011).

Key:
[1] = Rat pharmacokinetics (dosage: 1 mg/kg), blood compound concentrations; format: in vivo; details: male, whole blood, po, LEWIS rats, 1 mg/kg directly into the stomach; for AUC(0-t): read-out: AUC (0–24 h); for half-life: read-out: T½ (converted)
Method: Rat Pharmacokinetics (dosage: 1 mg/kg)
• (1) LEWIS rats (males, age 6 weeks, Japan Charles River) were used after acclimating for 1 week. 1 to 3 rats were used for each compound. • (2) Administration of Compounds
The compounds were dissolved in an aqueous physiological saline solution containing 4% (w/v) sulfobutyl ether β-cyclodextrin. The rats were administered the dissolved compounds directly into the stomach using a metal gastric tube in a dose of 2 mL per kg of body weight. • (3) Measurement of Blood Compound Concentrations
Blood samples were collected at 0.1 mL/animal/collection from the jugular vein using heparin as anticoagulant under ether anesthesia at predetermined times after administering the compounds. The blood samples were promptly treated with methanol after collection, and were placed in frozen storage until the time of measurement treatment. After treating the resulting blood samples by solid phase extraction, blood compound concentrations were measured with a high-performance liquid chromatograph-quadropole mass spectrometer. Various pharmacokinetic parameters were then calculated using pharmacokinetics analysis software (Winnonlin Professional) from the resulting blood concentrations.

[2] = tested on: Rat Peripheral Blood Lymphocyte Count; assay: Measurement of rat peripheral blood lymphocyte count (relative count and ID50) after oral administration; format: in vivo; details: LEW rats; for Lymphocyte Count (Relative Value Based on a value of 100% for Normal Control Group) (%): blood collected 3 hours after administration, dose not given; for ID50 of rat peripheral blood lymphocyte count: dosage giving 50% inhibition rate of lymphocyte count
Method: Measurement of Rat Peripheral Blood Lymphocyte Count
• (1) LEW rats (males, age 5 weeks, Japan Charles River) were used in groups of 5 animals per group. • (2) Administration of Compounds
The compounds were suspended in 1% tragacanth liquid (solvent). The suspended compounds were orally administered to the rats using a gastric tube in a dose of 5 mL per kg of body weight. Furthermore, the solvent was administered instead of the suspended compounds to a normal control group. • (3) Measurement of Peripheral Blood Lymphocyte Count
Blood samples were collected from the descending vena cava under ether anesthesia 3 hours after administration of the solvent or suspended compounds, and then transferred to tubes containing EDTA.
The absolute lymphocyte counts were measured for the collected blood samples using a hematology testing device. Lymphocyte count lowering activity of the test compounds was calculated as a relative value (%) based on a value of 100% for the lymphocyte count of the normal control group.
Measurement of ID50 of Rat Peripheral Blood Lymphocyte Count (mg/kg)
Inhibition rate (%) ={1-(lymphocyte count of compound dose group/lymphocyte count of solvent dose group)}×100 The dosage of the compound that yielded a value of 50% for the inhibition rate was calculated as the ID50 value.

Cmax [1] | AUC(0-t) [1] | half-life [1] | Compound | Lymphocyte Count (Relative Value Based on a value of 100% for Normal Control Group) (%) [2] | ID50 of rat peripheral blood lymphocyte count [2]
8.4 ng/mL | 123 ng·h/mL | 8.5 h | Cc1ccc(CCCC(=O)c2ccc(CC[C@@](C)(N)CO)n2C)cc1C.Cl [Example 2, (2R)-2-Amino-2-methyl-4-{1-methyl-5-[4-(3,4-dimethylphenyl)butanoyl]pyrrol-2-yl}butan-1-ol hydrochloride] |  | 
5.38 ng/mL | 71.7 ng·h/mL | 6.04 h | COc1ccc(CCCC(=O)c2ccc(CC[C@@](C)(N)CO)n2C)cc1C.Cl [Example 11, (2R)-2-Amino-2-methyl-4-{1-methyl-5-[4-(3-methyl-4-methoxyphenyl)butanoyl]pyrrol-2-yl}butan-1-ol hydrochloride] | 11% | 0.39 mg/kg

Further lines, the molecule ahead of its results:

Compound | Cmax [1] | AUC(0-t) [1] | half-life [1] | Lymphocyte Count (Relative Value Based on a value of 100% for Normal Control Group) (%) [2] | ID50 of rat peripheral blood lymphocyte count [2]
Cc1ccc(CCCC(=O)c2ccc(CC[C@@](C)(N)CO)n2C)cc1.Cl [Example 1, (2R) -2-Amino-2-methyl-4-{1-methyl-5-[4-(4-methylphenyl)butanoyl]pyrrol-2-yl}butan-1-ol hydrochloride] | 19.4 ng/mL | 288 ng·h/mL | 15.6 h | 8% | 0.21 mg/kg
CC(N)(CO)CCc1ccc(C(=O)CCCCc2ccccc2)s1 (centres unmarked) [Comparative Compound 1, reference compound] |  |  |  | 30% | 
Cc1ccc(CCCC(=O)c2ccc(CC[C@@](C)(N)CO)n2C)cc1C.Cl [Example 2] |  |  |  |  | 0.42 mg/kg
Cn1c(CC[C@@](C)(N)CO)ccc1C(=O)CCCc1ccccc1 [Comparative Compound 2, reference compound] |  |  |  | 31% | 0.78 mg/kg
